Reference: US20220356174A1, “PYRIDIN-2-ONE COMPOUNDS USEFUL AS SMARCA2 ANTAGONISTS” (Epizyme, Inc., priority 2018, published 2022)
Where two headings read alike, the source gives them in different places.

Legend:
[1] = molecular target: T1, FL-SMARCA2 (full-length human SMARCA2 isoform 1) (Homo sapiens, UniProt P51531); test: SMARCA2 ATPase activity assay (ADP-Glo, chicken mononucleosome substrate); format: biochemical; details: ATPase assay, enzyme 5 nM, ATP 250 uM, chicken mononucleosome 10 nM, 30 min preincubation
T1 construct: FLAG tag (YKDDDDK) (C); made in house; host or cells: Sf21 insect cells (baculovirus, pFastBacI)

[2] = molecular target: FL-SMARCA4 (Homo sapiens, UniProt P51532); test: SMARCA4 ATPase activity assay (ADP-Glo, chicken mononucleosome substrate)
[3] = FL-SMARCA4 IC50, Table 3.2, ATPase assay, enzyme 5 nM, ATP 250 uM, chicken mononucleosome 10 nM, 30 min preincubation
[4] = FL-SMARCA4 IC>50, Table 3c.2, ATPase assay, enzyme 5 nM, ATP 250 uM, chicken mononucleosome 10 nM, 30 min preincubation

FL-SMARCA4, sequence (P51532 whole entry): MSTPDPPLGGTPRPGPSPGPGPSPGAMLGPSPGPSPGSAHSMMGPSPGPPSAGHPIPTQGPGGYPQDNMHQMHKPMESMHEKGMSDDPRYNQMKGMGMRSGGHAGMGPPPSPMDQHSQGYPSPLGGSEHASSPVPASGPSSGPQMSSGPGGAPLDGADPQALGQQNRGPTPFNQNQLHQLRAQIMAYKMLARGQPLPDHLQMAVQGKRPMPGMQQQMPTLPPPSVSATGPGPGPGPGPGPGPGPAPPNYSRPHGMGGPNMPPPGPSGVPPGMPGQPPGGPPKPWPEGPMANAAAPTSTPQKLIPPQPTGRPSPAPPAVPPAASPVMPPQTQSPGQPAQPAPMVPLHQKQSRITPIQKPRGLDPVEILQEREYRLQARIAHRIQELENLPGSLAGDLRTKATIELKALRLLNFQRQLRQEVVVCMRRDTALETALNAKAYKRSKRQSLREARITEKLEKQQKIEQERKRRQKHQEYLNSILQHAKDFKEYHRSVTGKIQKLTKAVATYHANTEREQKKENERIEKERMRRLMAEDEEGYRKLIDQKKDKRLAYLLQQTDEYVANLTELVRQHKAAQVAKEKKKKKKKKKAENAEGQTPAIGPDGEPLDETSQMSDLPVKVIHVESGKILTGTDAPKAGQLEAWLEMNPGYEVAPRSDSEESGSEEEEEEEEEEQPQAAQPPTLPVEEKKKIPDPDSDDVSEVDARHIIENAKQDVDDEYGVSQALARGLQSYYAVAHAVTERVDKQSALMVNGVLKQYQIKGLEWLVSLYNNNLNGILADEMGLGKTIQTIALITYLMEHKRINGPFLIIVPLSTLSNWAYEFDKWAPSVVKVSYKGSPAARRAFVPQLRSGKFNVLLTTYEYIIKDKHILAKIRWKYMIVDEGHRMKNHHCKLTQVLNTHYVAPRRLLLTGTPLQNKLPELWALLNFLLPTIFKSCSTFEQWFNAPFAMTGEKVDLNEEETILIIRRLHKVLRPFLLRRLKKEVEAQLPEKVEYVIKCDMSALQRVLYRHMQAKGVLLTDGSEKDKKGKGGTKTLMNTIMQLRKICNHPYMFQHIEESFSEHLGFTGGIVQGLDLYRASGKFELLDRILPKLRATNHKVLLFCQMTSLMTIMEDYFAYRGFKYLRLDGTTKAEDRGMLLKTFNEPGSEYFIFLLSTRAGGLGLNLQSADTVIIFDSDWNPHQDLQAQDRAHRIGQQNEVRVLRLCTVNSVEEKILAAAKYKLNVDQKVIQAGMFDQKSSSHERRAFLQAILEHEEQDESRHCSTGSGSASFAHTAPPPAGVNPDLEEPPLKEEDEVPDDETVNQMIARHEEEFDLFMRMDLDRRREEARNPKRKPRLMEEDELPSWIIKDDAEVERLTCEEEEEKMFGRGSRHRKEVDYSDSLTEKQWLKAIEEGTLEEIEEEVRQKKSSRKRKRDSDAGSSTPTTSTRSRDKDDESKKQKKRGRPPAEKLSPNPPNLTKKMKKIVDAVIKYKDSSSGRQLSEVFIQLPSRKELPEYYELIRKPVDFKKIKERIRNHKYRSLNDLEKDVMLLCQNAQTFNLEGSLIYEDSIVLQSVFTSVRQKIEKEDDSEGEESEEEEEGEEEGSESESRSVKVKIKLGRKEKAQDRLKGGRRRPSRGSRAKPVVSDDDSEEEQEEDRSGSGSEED
T1 sequence (P51531 with tags, fused parts or gaps): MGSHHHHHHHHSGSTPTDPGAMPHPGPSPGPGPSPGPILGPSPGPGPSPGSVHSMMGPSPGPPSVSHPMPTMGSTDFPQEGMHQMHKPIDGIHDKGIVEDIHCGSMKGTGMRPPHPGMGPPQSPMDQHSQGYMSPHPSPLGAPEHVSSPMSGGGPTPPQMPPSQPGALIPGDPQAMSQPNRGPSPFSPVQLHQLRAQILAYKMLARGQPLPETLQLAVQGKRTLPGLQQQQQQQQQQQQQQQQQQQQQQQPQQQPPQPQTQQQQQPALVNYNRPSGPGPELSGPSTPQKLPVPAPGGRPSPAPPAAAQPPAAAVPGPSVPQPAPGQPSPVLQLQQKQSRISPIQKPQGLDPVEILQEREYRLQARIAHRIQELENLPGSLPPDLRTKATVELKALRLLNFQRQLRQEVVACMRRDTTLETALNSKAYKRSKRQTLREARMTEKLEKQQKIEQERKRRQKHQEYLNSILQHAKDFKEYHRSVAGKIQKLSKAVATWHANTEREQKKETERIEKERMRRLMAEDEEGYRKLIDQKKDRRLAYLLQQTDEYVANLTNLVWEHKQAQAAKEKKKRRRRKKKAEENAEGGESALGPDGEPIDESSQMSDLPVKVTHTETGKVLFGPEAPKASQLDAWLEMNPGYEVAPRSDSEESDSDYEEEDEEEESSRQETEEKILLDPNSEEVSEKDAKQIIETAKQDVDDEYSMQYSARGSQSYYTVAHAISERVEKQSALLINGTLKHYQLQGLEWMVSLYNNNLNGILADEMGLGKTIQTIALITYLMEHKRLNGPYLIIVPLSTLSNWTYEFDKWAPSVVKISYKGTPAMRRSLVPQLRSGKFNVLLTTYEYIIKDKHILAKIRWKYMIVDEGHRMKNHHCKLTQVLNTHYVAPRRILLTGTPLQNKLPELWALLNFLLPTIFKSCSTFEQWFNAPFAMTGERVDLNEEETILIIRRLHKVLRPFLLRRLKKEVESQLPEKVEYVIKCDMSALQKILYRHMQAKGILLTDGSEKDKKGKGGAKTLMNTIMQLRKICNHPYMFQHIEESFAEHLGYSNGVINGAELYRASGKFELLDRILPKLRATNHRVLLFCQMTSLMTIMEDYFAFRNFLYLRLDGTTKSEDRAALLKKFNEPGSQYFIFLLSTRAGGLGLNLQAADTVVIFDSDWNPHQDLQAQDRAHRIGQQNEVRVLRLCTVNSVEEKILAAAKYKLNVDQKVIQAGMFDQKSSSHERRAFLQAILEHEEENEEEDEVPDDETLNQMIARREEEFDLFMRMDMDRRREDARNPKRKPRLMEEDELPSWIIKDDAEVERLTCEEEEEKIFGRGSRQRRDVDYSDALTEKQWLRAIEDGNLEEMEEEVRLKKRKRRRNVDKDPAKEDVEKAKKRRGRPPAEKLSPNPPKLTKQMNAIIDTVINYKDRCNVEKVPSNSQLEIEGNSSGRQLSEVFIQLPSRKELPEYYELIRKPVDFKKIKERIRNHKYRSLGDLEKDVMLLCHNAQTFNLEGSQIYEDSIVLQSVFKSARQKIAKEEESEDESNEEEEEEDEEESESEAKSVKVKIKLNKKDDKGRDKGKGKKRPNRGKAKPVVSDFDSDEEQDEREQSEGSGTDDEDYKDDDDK

Structure (SMILES) | IC50 ([1]; Table 3.1) | IC50 [2, 3] | IC50 ([1]; Table 3c.1) | IC50 [2, 4] | other results
CCn1cc(NC(=O)c2ccn(C)n2)ccc1=O [Compound 93] | > 50 µM | > 50 µM | – | – | –
N#Cc1sc(C(=O)Nc2cc(F)c(=O)n(CC(F)F)c2)cc1C#CC1COC1 [Compound 93c] | – | – | > 50 µM | > 50 µM | –
CCn1cc(NC(=O)c2cc(Cl)n[nH]2)ccc1=O [Compound 94] | 3.15 µM | 11.5 µM | – | – | –
O=C(Nc1cc(F)c(=O)n(CC(F)F)c1)c1cc(C#CC2COC2)c(C2CC2)s1 [Compound 94c] | – | – | > 50 µM | > 50 µM | –
N#Cc1cc(C(=O)Nc2cc(F)c(=O)n(CC(F)F)c2)sc1C1(F)CC1 [Compound 94d] | – | – | – | – | IC50 ([1]; Table 3d.1, read-out: FL-SMARCA2 IC>50): 1.77 µM; IC50 ([2]; FL-SMARCA4 IC50): 17.9 µM
CCc1sc(C(=O)Nc2ccc(=O)n(CC)c2)cc1Cl [Compound 95] | > 50 µM | > 50 µM | – | – | –
CCn1cc(NC(=O)c2cc(Cl)n(C)c2Cl)ccc1=O [Compound 96] | > 50 µM | > 50 µM | – | – | –
CCn1cc(NC(=O)c2cc(Cl)[nH]c2Cl)ccc1=O [Compound 97] | > 50 µM | > 50 µM | – | – | –
CCn1cc(NC(=O)c2cc(CN(C)C)cs2)ccc1=O [Compound 98] | > 50 µM | > 50 µM | – | – | –
O=C(Nc1cc(F)c(=O)n(CC(F)(F)CO)c1)c1cc(Cl)c(Cl)s1 [Compound 100c] | – | – | 6.81 µM | 27.6 µM | –
O=C(Nc1cc(-c2cnco2)c(=O)n(CC(F)F)c1)c1cc(Cl)c(C(F)(F)F)s1 [Compound 101c] | – | – | > 50 µM | > 50 µM | –
O=C(Nc1cc(Cl)c(=O)n(CC(F)(F)F)c1)c1cc(Cl)c(Cl)s1 [Compound 102] | 4.12 µM | 18.6 µM | – | – | –
O=C(Nc1cc(-c2ncco2)c(=O)n(CC(F)F)c1)c1cc(Cl)c(C(F)(F)F)s1 [Compound 102c] | – | – | > 50 µM | > 50 µM | –
CCn1cc(NC(=O)c2cnc(Cl)s2)cc(Cl)c1=O [Compound 103] | 0.356 µM | 0.531 µM | – | – | –
Cn1ccc(-c2cc(NC(=O)c3cc(Cl)c(C(F)(F)F)s3)cn(CC(F)F)c2=O)n1 [Compound 103c] | – | – | 31.3 µM | 26 µM | –
O=C(Nc1cc(Cl)c(=O)n(CC(F)(F)F)c1)c1cnc(Cl)s1 [Compound 104] | 0.192 µM | 0.229 µM | – | – | –
O=C(Nc1cc(-c2c[nH]cn2)c(=O)n(CC(F)F)c1)c1cc(Cl)c(C(F)(F)F)s1 [Compound 104c] | – | – | 22.4 µM | 29.6 µM | –
CCn1cc(NC(=O)c2cc(Cl)c(Cl)s2)cc(C)c1=O [Compound 105] | 27.8 µM | > 50 µM | – | – | –
O=C1CC(C#Cc2cc(C(=O)Nc3cc(F)c(=O)n(CC(F)F)c3)sc2Cl)CCN1 (stereo not drawn) [Compound 105c] | – | – | 0.0407 µM | 0.172 µM | –

Structure (SMILES) | IC50 ([1]; Table 3.1) | IC50 [2, 3] | IC50 ([1]; Table 3c.1) | IC50 [2, 4] | other results
CCn1cc(NC(=O)c2cc(C#N)c(Cl)s2)ccc1=O [Compound 106] | 0.417 µM | 0.838 µM | – | – | –
O=C(Nc1cc(F)c(=O)n(CC(F)F)c1)c1cc(C#Cc2ccncc2)c(F)s1 [Compound 106c] | – | – | 0.028 µM | 0.0533 µM | –
CCn1cc(NC(=O)c2cc(Cl)ns2)ccc1=O [Compound 107] | 36.7 µM | > 50 µM | – | – | –
COc1nc(C#Cc2cc(C(=O)Nc3cc(F)c(=O)n(CC(F)F)c3)sc2Cl)cs1 [Compound 107c] | – | – | 0.0508 µM | 0.142 µM | –
CCn1cc(NC(=O)c2cn(C)c(Cl)n2)ccc1=O [Compound 108] | > 50 µM | > 50 µM | – | – | –
O=C(Nc1cc(F)c(=O)n(CC(F)F)c1)c1cc(C#CC2COC2)c(F)s1 [Compound 108c] | – | – | 0.0818 µM | 0.2 µM | –
CCn1cc(NC(=O)c2cc(Cl)c(Cl)s2)cc(F)c1=O [Compound 109] | 0.173 µM | 0.559 µM | – | – | –
O=C(Nc1cc(F)c(=O)n(CC(F)F)c1)c1cc(F)c(F)s1 [Compound 109c] | – | – | 0.0625 µM | 0.159 µM | –
CCn1cc(NC(=O)c2cc(Cl)c(Cl)s2)cc(OC)c1=O [Compound 110] | > 50 µM | > 50 µM | – | – | –
O=C(Nc1cc(-c2cn[nH]c2)c(=O)n(CC(F)F)c1)c1cc(Cl)c(C(F)(F)F)s1 [Compound 110c] | – | – | > 50 µM | > 50 µM | –
CCn1cc(NC(=O)c2cc(Cl)c(Cl)s2)cc(C(C)C)c1=O [Compound 111] | > 50 µM | > 50 µM | – | – | –
CCCc1cc(NC(=O)c2cc(Cl)c(Cl)s2)cn(CC)c1=O [Compound 112] | > 50 µM | > 50 µM | – | – | –
O=C(Nc1cc(F)c(=O)n(CC(F)F)c1)c1cc(C#Cc2ccncc2)n[nH]1 [Compound 112c] | – | – | > 50 µM | > 50 µM | –
CCn1cc(NC(=O)c2cc(Cl)c(Cl)s2)cc(NCCOC)c1=O [Compound 113] | 14.1 µM | 16.6 µM | – | – | –
CCn1cc(NC(=O)c2cc(Cl)c(Cl)s2)cc(NCCN(C)C)c1=O [Compound 114] | 9.42 µM | 14.3 µM | – | – | –
O=C(Nc1cc(F)c(=O)n(CC(F)F)c1)c1cc2c(s1)C(F)(F)CNC2 [Compound 114c] | – | – | 30.5 µM | > 50 µM | –
CCn1cc(NC(=O)c2ccn(C)c2Cl)ccc1=O [Compound 115] | > 50 µM | 16.7 µM | – | – | –
CN1Cc2cc(C(=O)Nc3cc(F)c(=O)n(CC(F)F)c3)sc2C(F)(F)C1 [Compound 115c] | – | – | > 50 µM | > 50 µM | –
CCn1cc(NC(=O)c2cc(Cl)c(OC)s2)ccc1=O [Compound 116] | 39.3 µM | > 50 µM | – | – | –

Structure (SMILES) | IC50 ([1]; Table 3.1) | IC50 [2, 3] | IC50 ([1]; Table 3c.1) | IC50 [2, 4] | other results
CCc1cc(NC(=O)c2cc(Cl)c(Cl)s2)cn(CC)c1=O [Compound 117] | > 50 µM | > 50 µM | – | – | –
CCn1cc(NC(=O)c2cc(Cl)c(Cl)s2)cc(OCCOC)c1=O [Compound 118] | > 50 µM | > 50 µM | – | – | –
CCn1cc(NC(=O)c2cc(Cl)c(Cl)s2)cc(OCCN2CCN(C)CC2)c1=O [Compound 119] | > 50 µM | > 50 µM | – | – | –
O=C(Nc1cc(F)c(=O)n(CC(F)F)c1)c1cc(N2CCN(c3ccncc3)CC2)c(Cl)s1 [Compound 119c] | – | – | 6.17 µM | 16.1 µM | –
CCn1cc(NC(=O)c2cc(Cl)c(Cl)s2)cc(Cc2ccccc2)c1=O [Compound 120] | > 50 µM | > 50 µM | – | – | –
CCn1cc(NC(=O)c2cc(Cl)c(Cl)s2)cc(OCCN(C)C)c1=O [Compound 121] | > 50 µM | > 50 µM | – | – | –
CCn1cc(NC(=O)c2cc(Cl)c(Cl)s2)cc(OCCN2CCOCC2)c1=O [Compound 122] | > 50 µM | > 50 µM | – | – | –
CCn1cc(NC(=O)c2cc(Cl)c(Cl)s2)cc(C#N)c1=O [Compound 123] | 1.2 µM | 11.6 µM | – | – | –
CCn1cc(NC(=O)c2cn(C(F)(F)F)c(Cl)n2)ccc1=O [Compound 124] | > 50 µM | > 50 µM | – | – | –
CCn1cc(NC(=O)c2cc(Cl)c(Cl)s2)cc(NC)c1=O [Compound 126] | 46.8 µM | > 50 µM | – | – | –
N#Cc1sc(C(=O)Nc2ccc(=O)n(CC(F)(F)F)c2)cc1Cl [Compound 127] | 0.252 µM | 0.527 µM | – | – | –
CCn1cc(NC(=O)c2cnc(Cl)s2)cc(F)c1=O [Compound 130] | 0.147 µM | 0.443 µM | – | – | –
N#Cc1sc(C(=O)Nc2ccc(=O)n(CCF)c2)cc1Cl [Compound 132] | 0.142 µM | 0.3 µM | – | – | –
CCn1cc(NC(=O)c2cc(Cl)c(Cl)n2C)cc(Cl)c1=O [Compound 133] | 0.343 µM | 2.18 µM | – | – | –
O=C(Nc1cc(F)c(=O)n(CC(F)F)c1)c1cc(C#Cc2ccnnc2)c(Cl)s1 [Compound 133c] | – | – | 0.0139 µM | 0.0607 µM | –
Cn1c(C(=O)Nc2cc(Cl)c(=O)n(CCF)c2)cc(Cl)c1Cl [Compound 134] | 0.148 µM | 0.631 µM | – | – | –
Cn1c(C(=O)Nc2cc(Cl)c(=O)n(CC(F)(F)F)c2)cc(Cl)c1Cl [Compound 135] | 0.293 µM | 2 µM | – | – | –
O=C(Nc1cc(F)c(=O)n(CC(F)F)c1)C1CCC(C(F)(F)F)O1 (stereo not drawn) [Compound 135c] | – | – | 39.5 µM | 35.8 µM | –
O=C(Nc1cc(F)c(=O)n(CC(F)F)c1)c1cc(C#Cc2cccc3c2CNC3=O)c(Cl)s1 [Compound 137c] | – | – | 0.3 µM | 0.558 µM | –
